According to the supplement of paper PMC11451515:

Tested on: P12-Ichikawa
Assay: cell viability relative to DMSO control; higher = less cytotoxic
Details: 48 h
Method in brief: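 Library compounds in DMSO were pin-dosed into 1536-well plates (5 μl) holding NOMO1 or SEM (500 cells/well) or P12-Ichikawa (1000 cells/well) leukemia cells, across an 11-point threefold series of 47 μM to 0.79 nM. Each cell line had been adapted for at least four passages in each medium. CellTiter-Glo One luminescence was read after 48 h at 37°C. Viability is the per-plate percentage relative to DMSO wells, with cell-free wells as background.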

[1] = HPLM + 10% dialyzed FBS, 0.000781 µM
[2] = HPLM + 10% dialyzed FBS, 0.00234 µM
[3] = HPLM + 10% dialyzed FBS, 0.00702 µM
[4] = HPLM + 10% dialyzed FBS, 0.0211 µM
[5] = HPLM + 10% dialyzed FBS, 0.0632 µM
[6] = HPLM + 10% dialyzed FBS, 0.19 µM
[7] = HPLM + 10% dialyzed FBS, 0.569 µM
[8] = HPLM + 10% dialyzed FBS, 1.71 µM
[9] = HPLM + 10% dialyzed FBS, 5.12 µM
[10] = HPLM + 10% dialyzed FBS, 15.4 µM
[11] = HPLM + 10% dialyzed FBS, 46.1 µM
[12] = RPMI 5 mM glucose + 10% dialyzed FBS, 0.000781 µM
[13] = RPMI 5 mM glucose + 10% dialyzed FBS, 0.00234 µM
[14] = RPMI 5 mM glucose + 10% dialyzed FBS, 0.00702 µM
[15] = RPMI 5 mM glucose + 10% dialyzed FBS, 0.0211 µM
[16] = RPMI 5 mM glucose + 10% dialyzed FBS, 0.0632 µM
[17] = RPMI 5 mM glucose + 10% dialyzed FBS, 0.19 µM
[18] = RPMI 5 mM glucose + 10% dialyzed FBS, 0.569 µM
[19] = RPMI 5 mM glucose + 10% dialyzed FBS, 1.71 µM
[20] = RPMI 5 mM glucose + 10% dialyzed FBS, 5.12 µM
[21] = RPMI 5 mM glucose + 10% dialyzed FBS, 15.4 µM
[22] = RPMI 5 mM glucose + 10% dialyzed FBS, 46.1 µM
[23] = RPMI 5 mM glucose + 10% FBS, 0.000781 µM
[24] = RPMI 5 mM glucose + 10% FBS, 0.00234 µM
[25] = RPMI 5 mM glucose + 10% FBS, 0.00702 µM
[26] = RPMI 5 mM glucose + 10% FBS, 0.0211 µM
[27] = RPMI 5 mM glucose + 10% FBS, 0.0632 µM
[28] = RPMI 5 mM glucose + 10% FBS, 0.19 µM
[29] = RPMI 5 mM glucose + 10% FBS, 0.569 µM
[30] = RPMI 5 mM glucose + 10% FBS, 1.71 µM
[31] = RPMI 5 mM glucose + 10% FBS, 5.12 µM
[32] = RPMI 5 mM glucose + 10% FBS, 15.4 µM
[33] = RPMI 5 mM glucose + 10% FBS, 46.1 µM

| SMILES | cell viability [1] [%] | cell viability [2] [%] | cell viability [3] [%] | cell viability [4] [%] | cell viability [5] [%] | cell viability [6] [%] | cell viability [7] [%] | cell viability [8] [%] | cell viability [9] [%] | cell viability [10] [%] | cell viability [11] [%] | cell viability [12] [%] | cell viability [13] [%] | cell viability [14] [%] | cell viability [15] [%] | cell viability [16] [%] | cell viability [17] [%] | cell viability [18] [%] | cell viability [19] [%] | cell viability [20] [%] | cell viability [21] [%] | cell viability [22] [%] | cell viability [23] [%] | cell viability [24] [%] | cell viability [25] [%] | cell viability [26] [%] | cell viability [27] [%] | cell viability [28] [%] | cell viability [29] [%] | cell viability [30] [%] | cell viability [31] [%] | cell viability [32] [%] | cell viability [33] [%] |
| --- | --- | --- | --- | --- | --- | --- | --- | --- | --- | --- | --- | --- | --- | --- | --- | --- | --- | --- | --- | --- | --- | --- | --- | --- | --- | --- | --- | --- | --- | --- | --- | --- | --- |
| C=C(C)[C@@H]1CC[C@]2(C)CC[C@]3(C)[C@H](CC[C@@H]4[C@@]5(C)CC[C@H](O)C(C)(C)[C@@H]5CC[C@]43C)[C@@H]12 | 108 | 115 | 116 | 113 | 127 | 134 | 128 | 125 | 126 | 126 | 124 | 104 | 119 | 102 | 115 | 130 | 110 | 128 | 126 | 124 | 119 | 126 | – | – | – | – | – | – | – | – | – | – | – |
| Cc1[nH]c(/C=C2\C(=O)Nc3ccc([S+](=O)([O-])N(C)c4cccc(Cl)c4)cc32)c(C)c1C(=O)N1CCN(C)CC1 | 118 | 130 | 124 | 119 | 126 | 127 | 119 | 110 | 111 | 76.7 | 0.631 | – | – | – | – | – | – | – | – | – | – | – | – | – | – | – | – | – | – | – | – | – | – |
| NC(=O)N1c2ccccc2CC(=O)c2ccccc21 | 115 | 116 | 121 | 125 | 124 | 138 | 129 | 128 | 132 | 127 | 134 | – | – | – | – | – | – | – | – | – | – | – | – | – | – | – | – | – | – | – | – | – | – |
| Cc1ccc(NC(=O)C2(c3ccc4c(c3)OC(F)(F)O4)CC2)nc1-c1cccc(C(=O)O)c1 | 101 | 111 | 101 | 108 | 93.4 | 58.4 | 29.4 | 19.5 | 17.2 | 10.9 | 6.66 | 102 | 103 | 97 | 96.1 | 95.4 | 44.5 | 30.4 | 20.8 | 9.02 | 8.13 | 6.13 | 106 | 98.6 | 95.5 | 101 | 85.3 | 42.2 | 18.7 | 16.1 | 11.1 | 9.88 | 6.85 |
| COc1cc2nccc(Oc3ccc(NC(=O)Nc4cc(C)on4)c(Cl)c3)c2cc1OC | 121 | 131 | 115 | 122 | 122 | 115 | 126 | 119 | 107 | 113 | 40.5 | – | – | – | – | – | – | – | – | – | – | – | 124 | 121 | 114 | 129 | 118 | 124 | 120 | 122 | 110 | 106 | 36.7 |
| CCOC(=O)C/1=C(C)/NC(=S)NC1C2=CC=CC(=C2)O (configuration not stated) | 110 | 115 | 115 | 118 | 125 | 59 | 9.07 | 6.6 | 5.26 | 6.98 | 5.13 | 102 | 102 | 113 | 113 | 120 | 93.4 | 21 | 14.2 | 7.5 | 9.98 | 11.8 | 106 | 110 | 128 | 128 | 112 | 42.6 | 11 | 8.73 | 7.18 | 8.04 | 9.16 |
| C[C@H]([C@H](O)CCC(C)(C)O)[C@H]1CC[C@@]2(O)C/3=C/C(=O)[C@@H]4C[C@@H](O)[C@@H](O)C[C@]4(C)[C@H]3CC[C@]12C | – | – | – | – | – | – | – | – | – | – | – | 109 | 125 | 121 | 124 | 131 | 122 | 119 | 121 | 120 | 107 | 113 | – | – | – | – | – | – | – | – | – | – | – |
| CCC1=C[C@@H]2CN(C1)Cc1c([nH]c3ccccc13)[C@@](C(=O)OC)(c1cc3c(cc1OC)N(C)[C@H]1[C@@](O)(C(=O)OC)[C@H](OC(C)=O)[C@]4(CC)C=CCN5CC[C@]31[C@@H]54)C2 | 106 | 110 | 94.4 | 85.4 | 36.2 | 15.4 | 15.9 | 12.6 | 12.8 | 8.96 | 7.62 | 110 | 100 | 99.7 | 89.4 | 59.2 | 21.7 | 29.3 | 25.4 | 22.4 | 13.9 | 10.6 | 108 | 108 | 96.6 | 59.8 | 29.6 | 16.2 | 18.3 | 16.5 | 11 | 9.49 | 7.18 |
| O=C1Nc2ccccc2/C1=C1\Nc2ccccc2C1=O | 106 | 106 | 109 | 102 | 104 | 101 | 104 | 103 | 94.9 | 104 | 97.9 | 99.3 | 102 | 105 | 91.2 | 104 | 97.1 | 106 | 94.9 | 93.1 | 102 | 83.4 | 101 | 111 | 103 | 105 | 110 | 108 | 104 | 104 | 95.9 | 99.7 | 98 |
| CC#C[C@]1(O)CC[C@H]2[C@@H]/3CCC/4=C/C(=O)CCC4=C3[C@H](C[C@]12C)C5=CC=C(C=C5)N(C)C | 101 | 101 | 103 | 105 | 107 | 110 | 107 | 98.7 | 102 | 75.1 | 73.1 | 80 | 94 | 92.7 | 98.9 | 102 | 97.6 | 93 | 95.9 | 83 | 51.5 | 39.6 | 95.6 | 108 | 105 | 104 | 105 | 93.9 | 106 | 87.4 | 83.4 | 61.2 | 30.8 |
